Ends that are not written are not given here.
Key:
[1] = target: T1, HSL1-SERK1 complex (Arabidopsis thaliana, UniProt Q94AG2+Q9SGP2); assay: ITC, SERK1 titrated into HSL1 plus peptide (ternary complex formation); conditions: SERK1 (syringe) into HSL1 + indicated peptide (cell), 25 °C, 20 mM sodium citrate pH 5.0, 150 mM NaCl, N fitted to 1, mean ± SD of at least two independent experiments, n.d = no binding detected
T1 construct: HSL1 (residues 17-618, AT1G28440); made in house; host or cells: Trichoplusia ni Tnao38 insect cells (baculovirus)
T1 sequence (Q9SGP2 17-618): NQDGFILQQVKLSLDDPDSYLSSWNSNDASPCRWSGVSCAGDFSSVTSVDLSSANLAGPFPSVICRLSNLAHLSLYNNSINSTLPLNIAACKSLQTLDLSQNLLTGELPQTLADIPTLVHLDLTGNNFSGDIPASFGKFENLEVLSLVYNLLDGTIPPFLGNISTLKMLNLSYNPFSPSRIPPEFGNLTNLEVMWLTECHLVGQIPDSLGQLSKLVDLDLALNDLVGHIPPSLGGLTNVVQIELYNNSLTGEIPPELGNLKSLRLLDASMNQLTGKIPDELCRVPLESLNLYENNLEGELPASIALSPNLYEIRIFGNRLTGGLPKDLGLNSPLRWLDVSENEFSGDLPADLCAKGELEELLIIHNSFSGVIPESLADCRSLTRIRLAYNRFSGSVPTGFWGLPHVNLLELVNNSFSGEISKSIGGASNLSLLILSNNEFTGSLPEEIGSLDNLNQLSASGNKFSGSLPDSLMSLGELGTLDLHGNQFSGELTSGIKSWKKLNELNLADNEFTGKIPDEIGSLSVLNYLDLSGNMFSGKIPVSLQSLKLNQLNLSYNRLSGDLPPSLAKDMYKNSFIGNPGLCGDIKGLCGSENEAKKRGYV
T1 sequence (Q94AG2 24-213 partner limits assumed): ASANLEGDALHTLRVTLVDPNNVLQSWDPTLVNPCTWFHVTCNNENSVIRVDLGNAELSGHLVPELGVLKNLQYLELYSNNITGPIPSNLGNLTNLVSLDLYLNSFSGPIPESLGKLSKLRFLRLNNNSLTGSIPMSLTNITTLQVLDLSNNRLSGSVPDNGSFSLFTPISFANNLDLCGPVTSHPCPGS
Source text: (§1) All genes used for protein expression in Trichoplusia ni Tnao38 cells[46] were codon optimized and cloned into a modified pFastBac vector (Geneva Biotech) providing an azurocidin[47] or Drosophila BIP signal peptide, a TEV (tobacco etch virus protease) cleavage site and a Strep-9xHis tandem affinity tag at their carboxy terminus. The genes used are coding for the Arabidopsis ectodomains of HSL1 (residues 17-618, AT1G28440), HAE (residues 20-620, AT4G28490) SERK1 (residues 24–213, AT1G71830), and BAM1 (residues 20–637, AT5G65700). To perform Grating-coupled interferometry (GCI) experiments, HSL1 was fused to a non-cleavable Avi-tag[49],[50]. […] After every expression round, secretion of our proteins was detected using an anti-His-HRP conjugated antibody from Roche (Ref:11965085001) in a 1:2000 dilution. […] Proteins were analyzed for purity and structural integrity by SDS-PAGE.
(§2) Experiments were performed at 25 °C using a MicroCal PEAQ-ITC (Malvern Instruments) with a 200 µL standard cell and a 40 μL titration syringe. […] Molar protein concentrations for HSL1, BAM1, and SERK1 were calculated using their molar extinction coefficient and a molecular weight of 74,896 and 27,551 Da, respectively as previously determined. […] Experiments were done in duplicates or triplicates, otherwise specified, and data were analyzed using the MicroCal PEAQ-ITC Analysis Software provided by the manufacturer. […]

[2] = target: T2, HSL1 ectodomain (Arabidopsis thaliana, UniProt Q9SGP2); assay: ITC, peptide titrated into isolated HSL1 ectodomain; conditions: peptide (syringe) into HSL1 ectodomain (cell), 25 °C, 20 mM sodium citrate pH 5.0, 150 mM NaCl, N fitted to 1, mean ± SD of at least two independent experiments, n.d = no binding detected
T2 construct: HSL1 (residues 17-618, AT1G28440); azurocidin or Drosophila BIP signal peptide (secretion signal) (N); made in house; host or cells: Trichoplusia ni Tnao38 insect cells (baculovirus)
T2 sequence (Q9SGP2 17-618): T1 sequence (Q9SGP2 17-618)
Source text: as §1, §2

RLVPSGPNPLHH [CLE13]
Kd (dissociation constant), SERK1 vs HSL1 + peptide [1]: no biding was detected
Kd (dissociation constant), peptide vs HSL1 [2]: could not detect binding

— publication PMC8847575, “HSL1 and BAM1/2 impact epidermal cell development by sensing distinct signaling peptides” (Nature Communications, 2022)
